These results are taken from US7041698B2, “Hepatitis C virus inhibitors” (Bristol-Myers Squibb Company, priority 2002, dated 2006).

Some results are limits rather than exact numbers.

The target of test [1] is T1, HCV NS3/4A protease complex (UniProt P27958, C1454S/C1711G, species not given).
T1 construct: fused on or other part: Three-lysine solubilising tail at the C-terminus of NS4A
The test is described as follows: Recombinant HCV NS3/4A protease complex FRET peptide assay (strain not stated). The format is biochemical. The note with it: HCV NS3/4A protease enzyme assay, read-out: IC50 range.

In test [2] the test system is HCV replicon in Huh7 cells. The test is described as follows: HCV replicon cell-based assay. Set-up: species or system HCV strain 1B. The note with it: Hepatitis C virus, Huh-7, 96 h, HCV replicon, 4 days, read-out: EC50 range. From the text:
HCV Replicon Cell-based Assay
An HCV replicon whole cell system was established as described by Lohmann V, Komer F, Koch J, Herian U, Theilmann L, Bartenschlager R., Science 285(5424):110–3 (1999). This system enabled us to evaluate the effects of our HCV Protease compounds on HCV RNA replication. Briefly, using the HCV strain 1B sequence described in the Lohmann paper (Assession number:AJ238799), an HCV cDNA was generated encoding the 5′ internal ribosome entry site (IRES), the neomycin resistance gene, the EMCV (encephalomyocarditis viurs)-IRES and the HCV nonstructural proteins, NS3-NS5B, and 3′ non-translated region (NTR). In vitro transcripts of the cDNA were transfected into the human hepatoma cell line, Huh7. […] Resulting cell lines were characterized for positive and negative strand RNA production and protein production over time.
Huh7 cells, constitutively expressing the HCV replicon, were grown in Dulbecco's Modified Eagle Media (DMEM) containing 10% Fetal calf serum (FCS) and 1 mg/ml G418 (Gibco-BRL). Cells were seeded the night before (1.5×10^4 cells/well) in 96-well tissue-culture sterile plates. Compound and no compound controls were prepared in DMEM containing 4% FCS, 1:100 Penicillin/Streptomysin, 1:100 L-glutamine and 5% DMSO in the dilution plate (0.5% DMSO final concentration in the assay). Compound/DMSO mixes were added to the cells and incubated for 4 days at 37° C. After 4 days, plates were rinsed thoroughly with Phosphate-Buffered Saline (PBS) (3 times 150 μl). The cells were lysed with 25 μl of a lysis assay reagent containing the FRET peptide (RET S1, as described for the in vitro enzyme assay). The lysis assay reagent was made from 5× cell Luciferase cell culture lysis reagent (Promega #E153A) diluted to 1× with distilled water, NaCl added to 150 mM final, the FRET peptide diluted to 10 μM final from a 2 mM stock in 100% DMSO. The plate was then placed into the Cytofluor 4000 instrument which had been set to 340 nm excitation/490 emission, automatic mode for 21 cycles and the plate read in a kinetic mode. EC50 determinations were carried out as described for the IC50 determinations.
As a secondary assay, EC50 determinations from the replicon FRET assay were confirmed in a quantitative RNA assay. Cells were lyzed using the Rneasy kit (Qiagen). Purified total RNA was normalized using RiboGreen (Jones L J, Yue S T, Cheung C Y, Singer V L, Anal. Chem., 265(2):368–74 (1998)) and relative quantitation of HCV RNA expression assessed using the Taqman procedure (Kolykhalov A A, Mihalik K, Feinstone S M, Rice C M, Journal of Virology 74, 2046–2051 (2000)) and the Platinum Quantitative RT-PCR Thermoscript One-Step kit (Invitrogen cat # 11731-015). Briefly, RNA made to a volume of 5 μl (<1 ng) was added to a 20 μl Ready-Mix containing the following: 1.25× Thermoscript reaction mix (containing Magnesium Sulfate and 2-deoxynucleoside 5′-triphosphates (dNTPs)), 3 mM dNTPs, 200 nM forward primer (sequence: 5′-[…]-3′), 600 nM reverse primer (5′-[…]-3′), 100 nM probe (5′-6-FAM-[…]-BHQ-1-3′)(FAM: Fluorescein-aminohexyl amidite; BHQ: Black Hole Quencher), 1 μM Rbx reference dye (Invitrogen cat # 12223-012) and Thermoscript Plus Platinum Taq polymerase mixture. All primers were designed with ABI Prism 7700 software and obtained from Biosearch Technologies, Novato, Calif. Samples containing known concentrations of HCV RNA transcript were run as standards. Using the following cycling protocol (50° C., 30 min; 95° C., 5 min; 40 cycles of 95° C., 15 sec, 60° C., 1 min), HCV RNA expression was quantitated as described in the Perkin Elmer manual using the ABI Prism 7700 Sequence Detector.
The luciferase reporter assay was also used to confirm compound potency in the replicon. Utilization of a replicon luciferase reporter assay was first described by Krieger et al (Krieger N, Lohmann V, and Bartenschlager R, J. Virol. 75(10):4614–4624 (2001)). […]
A general note: A replicon is a self-replicating genome or part of one, used to study replication in cells.

For orientation: IC50 means the concentration needed to halve the response being measured. What is called EC50 is the concentration at which the effect is half-maximal. Consider `C=CC1C[C@]1(NC(=O)[C@@H]1C[C@@H](OC(=O)Nc2cc(C#N)ccc2-n2cccn2)CN1C(=O)[C@@H](NC(=O)OC(C)(C)C)C(C)(C)C)C(=O)NS(=O)(=O)C1CC1` (stereo partly drawn) [Compound 98, BocNH-P3(t-BuGly)-P2(Hyp(O—CO(NH—(5-Cyano-2-pyrazol-1-yl-phenyl))))-P1(1R,2S VinylAcca)—CONHSO2Cyclopropane], for which the concentration for half-maximal inhibition (IC50) in test [1] was less than 100 nM. Also, the EC50 in test [2] is less than 100 nM.
For `C=CC1C[C@]1(NC(=O)[C@@H]1C[C@@H](OC(=O)n2c3ccccc3c3ccccc32)CN1C(=O)[C@@H](NC(=O)OC(C)(C)C)C(C)(C)C)C(=O)NS(=O)(=O)C1CC1` (stereo partly drawn) [Compound 32, BocNH-P3(t-BuGly)-P2(Hyp(O—CO(N-(9-carbazolyl))))-P1(1R,2S VinylAcca)—CONHSO2Cyclopropane], the IC50 in test [1] is less than 100 nM. For the same compound, the EC50 in test [2] was less than 100 nM.
For `C=CC1C[C@]1(NC(=O)[C@@H]1C[C@@H](OC(=O)Nc2cccc(C(F)(F)F)c2)CN1C(=O)[C@@H](NC(=O)OC(C)(C)C)C(C)(C)C)C(=O)NS(=O)(=O)C1CC1` (stereo partly drawn) [Compound 34, BocNH-P3(t-BuGly)-P2(Hyp(O—CO(NH—(3-trifluoromethyl-phenyl))))-P1(1R,2S VinylAcca)—CONHSO2Cyclopropane], the 50% inhibitory concentration (IC50) in test [1] was 100 to 1000 nM. In test [2], the EC50 fell in the range of 1000 to 10000 nM.
The like results for `C=CC1C[C@]1(NC(=O)[C@@H]1C[C@@H](OC(=O)N[C@H](C(=O)OC)[C@@H](C)CC)CN1C(=O)[C@@H](NC(=O)OC(C)(C)C)C(C)(C)C)C(=O)NS(=O)(=O)C1CC1` (stereo partly drawn) [Compound 12, BocNH-P3(t-BuGly)-P2(Hyp(O—CO(NH-2-[(2S,3S)-3-methylvaleric acid methyl ester])))-P1(1R,2S VinylAcca)—CONHSO2Cyclopropane] were, in that order, 1000 to 10000 nM and more than 10000 nM.
In the case of `C=CC1C[C@]1(NC(=O)[C@@H]1C[C@@H](OC(=O)Nc2c(Cl)cccc2Cl)CN1C(=O)[C@@H](NC(=O)OC(C)(C)C)C(C)(C)C)C(=O)NS(=O)(=O)C1CC1` (stereo partly drawn) [Compound 54, BocNH-P3(t-BuGly)-P2(Hyp(O—CO(NH—(2,6-dichloro-phenyl))))-P1(1R,2S VinylAcca)—CONHSO2Cyclopropane], in test [1], the IC50 lay within 100 to 1000 nM. Also, the concentration for a half-maximal effect (EC50) in test [2] fell in the range of 1000 to 10000 nM.
For `C=CC1C[C@]1(NC(=O)[C@@H]1C[C@@H](OC(=O)N2CCCC2)CN1C(=O)[C@@H](NC(=O)OC(C)(C)C)C(C)(C)C)C(=O)NS(=O)(=O)C1CC1` (stereo partly drawn) [Compound 13, BocNH-P3(t-BuGly)-P2(Hyp(O—CO(N,N-(pyrrolidino))))-P1(1R,2S VinylAcca)—CONHSO2Cyclopropane] the same measures were 100 to 1000 nM and more than 10000 nM.
For `C=CC1C[C@]1(NC(=O)[C@@H]1C[C@@H](OC(=O)N2CCc3ccccc32)CN1C(=O)[C@@H](NC(=O)OC(C)(C)C)C(C)(C)C)C(=O)NS(=O)(=O)C1CC1` (stereo partly drawn) [Compound 36, BocNH-P3(t-BuGly)-P2(Hyp(O—CO(N-(1-indolinyl))))-P1(1R,2S VinylAcca)—CONHSO2Cyclopropane] the same measures were less than 100 nM and 100 to 1000 nM.
The like results for `C=CC1C[C@]1(NC(=O)[C@@H]1C[C@@H](OC(=O)Nc2cc(C(F)(F)F)ccc2N2CCC(C(F)(F)F)CC2)CN1C(=O)[C@@H](NC(=O)OC(C)(C)C)C(C)(C)C)C(=O)NS(=O)(=O)C1CC1` (stereo partly drawn) [Compound 92, BocNH-P3(t-BuGly)-P2(Hyp(O—CO(NH—(5-Trifluoromethyl-2-(4-trifluoromethyl-piperidin-1-yl)-phenyl))))-P1(1R,2S VinylAcca)—CONHSO2Cyclopropane] were, in that order, less than 100 nM and less than 100 nM.
Turning to `C=CC1C[C@]1(NC(=O)[C@@H]1C[C@@H](OC(=O)Nc2cccc(CC)c2)CN1C(=O)[C@@H](NC(=O)OC(C)(C)C)C(C)(C)C)C(=O)NS(=O)(=O)C1CC1` (stereo partly drawn) [Compound 25, BocNH-P3(t-BuGly)-P2(Hyp(O—CO(NH—(3-ethyl-phenyl))))-P1(1R,2S VinylAcca)—CONHSO2Cyclopropane], in test [1], the IC50 was less than 100 nM. In addition, the 50% effective concentration (EC50) in test [2] is 1000 to 10000 nM.
As for `C=CC1C[C@]1(NC(=O)[C@@H]1C[C@@H](OC(=O)Nc2c(F)cccc2F)CN1C(=O)[C@@H](NC(=O)OC(C)(C)C)C(C)(C)C)C(=O)NS(=O)(=O)C1CC1` (stereo partly drawn) [Compound 52, BocNH-P3(t-BuGly)-P2(Hyp(O—CO(NH—(2,6-difluorophenyl))))-P1(1R,2S VinylAcca)—CONHSO2Cyclopropane], the 50% inhibitory concentration (IC50) in test [1] was in the range of 100 to 1000 nM. Besides, the EC50 in test [2] is more than 10000 nM.
The like results for `C=CC1C[C@]1(NC(=O)[C@@H]1C[C@@H](OC(=O)Nc2ncccc2C(=O)OCC)CN1C(=O)[C@@H](NC(=O)OC(C)(C)C)C(C)(C)C)C(=O)NS(=O)(=O)C1CC1` (stereo partly drawn) [Compound 72, BocNH-P3(t-BuGly)-P2(Hyp(O—CO(NH-2-(nicotinic acid ethyl ester))))-P1(1R,2S VinylAcca)—CONHSO2Cyclopropane] were, in that order, less than 100 nM and 1000 to 10000 nM.
Consider `C=CC1C[C@]1(NC(=O)[C@@H]1C[C@@H](OC(=O)Nc2ccccc2CCC)CN1C(=O)[C@@H](NC(=O)OC(C)(C)C)C(C)(C)C)C(=O)NS(=O)(=O)C1CC1` (stereo partly drawn) [Compound 66, BocNH-P3(t-BuGly)-P2(Hyp(O—CO(NH—(2-propyl-phenyl))))-P1(1R,2S VinylAcca)—CONHSO2Cyclopropane], for which the IC50 in test [1] is less than 100 nM. For the same compound, the 50% effective concentration (EC50) in test [2] was 1000 to 10000 nM.
With `C=CC1C[C@]1(NC(=O)[C@@H]1C[C@@H](OC(=O)Nc2ccccc2C(=O)OCC)CN1C(=O)[C@@H](NC(=O)OC(C)(C)C)C(C)(C)C)C(=O)NS(=O)(=O)C1CC1` (stereo partly drawn) [Compound 19, BocNH-P3(t-BuGly)-P2(Hyp(O—CO(NH—(2-benzoic acid ethyl ester))))-P1(1R,2S VinylAcca)—CONHSO2Cyclopropane], in test [1], the IC50 was less than 100 nM. Further, the concentration giving a half-maximal response (EC50) in test [2] is less than 100 nM.
Take `C=CC1C[C@]1(NC(=O)[C@@H]1C[C@@H](OC(=O)Nc2cccc(OC)c2)CN1C(=O)[C@@H](NC(=O)OC(C)(C)C)C(C)(C)C)C(=O)NS(=O)(=O)C1CC1` (stereo partly drawn) [Compound 27, BocNH-P3(t-BuGly)-P2(Hyp(O—CO(NH—(3-methoxy-phenyl))))-P1(1R,2S VinylAcca)—CONHSO2Cyclopropane]: the IC50 in test [1] is less than 100 nM. For the same compound, the concentration for a half-maximal effect (EC50) in test [2] fell in the range of 1000 to 10000 nM.
For `C=CC1C[C@]1(NC(=O)[C@@H]1C[C@@H](OC(=O)Nc2cc(Cl)ccc2OC)CN1C(=O)[C@@H](NC(=O)OC(C)(C)C)C(C)(C)C)C(=O)NS(=O)(=O)C1CC1` (stereo partly drawn) [Compound 9, BocNH-P3(t-BuGly)-P2(Hyp(O—CO(NH—(5-chloro-2-methoxy-phenyl))))-P1(1R,2S VinylAcca)—CONHSO2Cyclopropane] the same measures were less than 100 nM and 100 to 1000 nM.
Consider `C=CC1C[C@]1(NC(=O)[C@@H]1C[C@@H](OC(=O)Nc2cccc(C(C)=O)c2)CN1C(=O)[C@@H](NC(=O)OC(C)(C)C)C(C)(C)C)C(=O)NS(=O)(=O)C1CC1` (stereo partly drawn) [Compound 47, BocNH-P3(t-BuGly)-P2(Hyp(O—CO(NH—(3-acetyl-phenyl))))-P1(1R,2S VinylAcca)—CONHSO2Cyclopropane], for which the IC50 in test [1] was in the range of 100 to 1000 nM. Moreover, the 50% effective concentration (EC50) in test [2] is more than 10000 nM.
